ChEMBL document CHEMBL5696441 (Nat Chem Biol, 2011)

Legend:
[1] = molecular target: Casein kinase I isoform gamma-1 (Homo sapiens) (UniProt Q9HCP0); assay: Inhibition of CSNK1G1 (unknown origin) assessed as remaining activity at 1 uM by Kinome scan method relative to control
[2] = molecular target: Serine/threonine-protein kinase DCLK3 (Homo sapiens) (UniProt Q9C098); assay: Inhibition of DCAMKL3 (unknown origin) assessed as remaining activity at 1 uM by Kinome scan method relative to control
[3] = molecular target: Dual specificity tyrosine-phosphorylation-regulated kinase 1A (Homo sapiens) (UniProt Q13627); assay: Inhibition of DYRK1A (unknown origin) assessed as remaining activity at 1 uM by Kinome scan method relative to control
[4] = molecular target: T1, Tyrosine-protein kinase JAK3 (Homo sapiens) (UniProt P52333); assay: Inhibition of JAK3 JH1 domain (unknown origin) assessed as remaining activity at 1 uM by Kinome scan method relative to control
T1 sequence (whole entry): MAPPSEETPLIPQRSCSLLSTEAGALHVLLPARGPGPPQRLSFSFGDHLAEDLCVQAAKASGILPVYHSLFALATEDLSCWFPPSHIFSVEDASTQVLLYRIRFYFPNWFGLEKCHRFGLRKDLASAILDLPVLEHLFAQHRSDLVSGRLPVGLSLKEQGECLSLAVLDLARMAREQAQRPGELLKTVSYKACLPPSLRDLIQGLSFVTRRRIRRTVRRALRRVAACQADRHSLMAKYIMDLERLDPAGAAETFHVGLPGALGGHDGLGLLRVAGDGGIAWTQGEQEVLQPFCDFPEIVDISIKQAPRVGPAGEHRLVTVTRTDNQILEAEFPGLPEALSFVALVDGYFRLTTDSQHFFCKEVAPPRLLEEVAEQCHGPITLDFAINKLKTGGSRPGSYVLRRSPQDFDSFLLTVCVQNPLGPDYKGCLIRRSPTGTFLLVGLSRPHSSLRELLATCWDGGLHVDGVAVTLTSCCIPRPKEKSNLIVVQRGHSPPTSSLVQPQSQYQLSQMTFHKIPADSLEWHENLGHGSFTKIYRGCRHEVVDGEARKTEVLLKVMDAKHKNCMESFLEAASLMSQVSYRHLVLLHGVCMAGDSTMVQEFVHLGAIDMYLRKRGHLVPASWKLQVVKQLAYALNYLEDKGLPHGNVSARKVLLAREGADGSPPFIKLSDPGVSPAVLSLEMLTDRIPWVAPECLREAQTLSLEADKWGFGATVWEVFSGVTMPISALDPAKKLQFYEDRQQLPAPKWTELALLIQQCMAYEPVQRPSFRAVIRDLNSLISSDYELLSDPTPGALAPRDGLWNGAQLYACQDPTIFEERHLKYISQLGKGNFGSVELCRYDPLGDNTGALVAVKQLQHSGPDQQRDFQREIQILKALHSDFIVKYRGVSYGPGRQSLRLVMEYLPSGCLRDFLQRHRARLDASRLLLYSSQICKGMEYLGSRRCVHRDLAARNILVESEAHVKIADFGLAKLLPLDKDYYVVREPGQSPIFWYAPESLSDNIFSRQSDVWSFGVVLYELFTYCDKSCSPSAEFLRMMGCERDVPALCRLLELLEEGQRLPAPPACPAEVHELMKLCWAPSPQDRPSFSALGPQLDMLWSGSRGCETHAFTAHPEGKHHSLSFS

[5] = molecular target: Microtubule-associated serine/threonine-protein kinase 1 (Homo sapiens) (UniProt Q9Y2H9); assay: Inhibition of MAST1 (unknown origin) assessed as remaining activity at 1 uM by Kinome scan method relative to control
[6] = molecular target: 3-phosphoinositide-dependent protein kinase 1 (Homo sapiens) (UniProt O15530); assay: Inhibition of PDPK1 (unknown origin) assessed as remaining activity at 1 uM by Kinome scan method relative to control
[7] = molecular target: Phosphatidylinositol 4-kinase beta (Homo sapiens) (UniProt Q9UBF8); assay: Inhibition of PIK4CB (unknown origin) assessed as remaining activity at 1 uM by Kinome scan method relative to control
[8] = molecular target: T2, cGMP-dependent protein kinase 1 (Homo sapiens) (UniProt Q13976); assay: Inhibition of PRKG1 (unknown origin) assessed as remaining activity at 1 uM by Kinome scan method relative to control
T2 sequence (whole entry): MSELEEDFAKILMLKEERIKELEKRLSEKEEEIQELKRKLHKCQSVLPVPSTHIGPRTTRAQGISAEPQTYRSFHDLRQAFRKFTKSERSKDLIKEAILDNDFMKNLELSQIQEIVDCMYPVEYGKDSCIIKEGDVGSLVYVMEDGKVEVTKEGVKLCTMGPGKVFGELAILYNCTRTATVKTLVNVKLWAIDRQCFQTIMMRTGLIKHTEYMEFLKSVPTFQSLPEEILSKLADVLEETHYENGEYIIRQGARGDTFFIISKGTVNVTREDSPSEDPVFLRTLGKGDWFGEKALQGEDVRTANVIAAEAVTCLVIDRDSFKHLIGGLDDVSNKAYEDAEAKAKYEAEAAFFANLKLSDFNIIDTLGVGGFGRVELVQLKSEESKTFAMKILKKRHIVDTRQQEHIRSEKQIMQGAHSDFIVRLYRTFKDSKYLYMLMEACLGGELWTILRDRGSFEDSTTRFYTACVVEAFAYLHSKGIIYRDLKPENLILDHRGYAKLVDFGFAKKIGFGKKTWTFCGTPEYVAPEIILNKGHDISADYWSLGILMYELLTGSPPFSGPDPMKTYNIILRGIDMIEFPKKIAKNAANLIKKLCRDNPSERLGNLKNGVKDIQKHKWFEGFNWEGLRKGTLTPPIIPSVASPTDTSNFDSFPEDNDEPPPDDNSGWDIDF

[9] = molecular target: Ribosomal protein S6 kinase alpha-3 (Homo sapiens) (UniProt P51812); assay: Inhibition of N-terminal kinase domain RPS6KA3 (unknown origin) assessed as remaining activity at 1 uM by Kinome scan method relative to control
[10] = molecular target: Ribosomal protein S6 kinase alpha-4 (Homo sapiens) (UniProt O75676); assay: Inhibition of C-terminal kinase domain RPS6KA4 (unknown origin) assessed as remaining activity at 1 uM by Kinome scan method relative to control
[11] = molecular target: Serine/threonine-protein kinase 36 (Homo sapiens) (UniProt Q9NRP7); assay: Inhibition of STK36 (unknown origin) assessed as remaining activity at 1 uM by Kinome scan method relative to control

Sequence of Casein kinase I isoform gamma-1 (Homo sapiens) (Q9HCP0 whole entry, looked up, canonical isoform): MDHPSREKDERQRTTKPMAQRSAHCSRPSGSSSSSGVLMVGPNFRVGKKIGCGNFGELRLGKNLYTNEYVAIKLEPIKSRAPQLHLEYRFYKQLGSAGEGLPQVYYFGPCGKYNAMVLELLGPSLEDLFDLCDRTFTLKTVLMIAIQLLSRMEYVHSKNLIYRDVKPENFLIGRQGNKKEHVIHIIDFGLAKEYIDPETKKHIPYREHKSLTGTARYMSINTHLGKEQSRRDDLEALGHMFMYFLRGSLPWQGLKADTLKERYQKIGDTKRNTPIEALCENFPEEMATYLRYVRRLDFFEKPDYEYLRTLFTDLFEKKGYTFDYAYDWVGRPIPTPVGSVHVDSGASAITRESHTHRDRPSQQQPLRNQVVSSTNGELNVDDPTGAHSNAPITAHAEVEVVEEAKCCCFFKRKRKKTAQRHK
Sequence of Ribosomal protein S6 kinase alpha-4 (Homo sapiens) (O75676 whole entry, looked up, the tested form may be a part): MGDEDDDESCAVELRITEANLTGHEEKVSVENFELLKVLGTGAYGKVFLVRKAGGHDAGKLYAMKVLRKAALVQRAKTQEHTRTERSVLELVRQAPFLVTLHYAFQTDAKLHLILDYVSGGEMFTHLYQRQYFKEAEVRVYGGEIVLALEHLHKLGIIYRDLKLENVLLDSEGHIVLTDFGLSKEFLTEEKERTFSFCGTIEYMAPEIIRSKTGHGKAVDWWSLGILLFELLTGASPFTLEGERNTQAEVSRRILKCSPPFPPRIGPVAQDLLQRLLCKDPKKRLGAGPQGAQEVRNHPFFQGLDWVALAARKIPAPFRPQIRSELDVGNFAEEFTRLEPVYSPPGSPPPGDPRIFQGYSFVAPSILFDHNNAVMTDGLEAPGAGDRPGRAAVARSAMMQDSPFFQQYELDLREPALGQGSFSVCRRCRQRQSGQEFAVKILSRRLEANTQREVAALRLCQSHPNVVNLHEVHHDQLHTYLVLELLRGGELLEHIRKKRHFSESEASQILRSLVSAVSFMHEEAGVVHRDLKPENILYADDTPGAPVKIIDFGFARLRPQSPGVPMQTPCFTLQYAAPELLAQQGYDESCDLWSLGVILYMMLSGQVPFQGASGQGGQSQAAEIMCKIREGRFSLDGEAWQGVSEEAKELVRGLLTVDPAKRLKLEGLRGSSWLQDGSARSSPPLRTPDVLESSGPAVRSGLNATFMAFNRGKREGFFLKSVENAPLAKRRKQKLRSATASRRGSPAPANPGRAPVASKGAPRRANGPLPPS
Sequence of Serine/threonine-protein kinase DCLK3 (Homo sapiens) (Q9C098 whole entry): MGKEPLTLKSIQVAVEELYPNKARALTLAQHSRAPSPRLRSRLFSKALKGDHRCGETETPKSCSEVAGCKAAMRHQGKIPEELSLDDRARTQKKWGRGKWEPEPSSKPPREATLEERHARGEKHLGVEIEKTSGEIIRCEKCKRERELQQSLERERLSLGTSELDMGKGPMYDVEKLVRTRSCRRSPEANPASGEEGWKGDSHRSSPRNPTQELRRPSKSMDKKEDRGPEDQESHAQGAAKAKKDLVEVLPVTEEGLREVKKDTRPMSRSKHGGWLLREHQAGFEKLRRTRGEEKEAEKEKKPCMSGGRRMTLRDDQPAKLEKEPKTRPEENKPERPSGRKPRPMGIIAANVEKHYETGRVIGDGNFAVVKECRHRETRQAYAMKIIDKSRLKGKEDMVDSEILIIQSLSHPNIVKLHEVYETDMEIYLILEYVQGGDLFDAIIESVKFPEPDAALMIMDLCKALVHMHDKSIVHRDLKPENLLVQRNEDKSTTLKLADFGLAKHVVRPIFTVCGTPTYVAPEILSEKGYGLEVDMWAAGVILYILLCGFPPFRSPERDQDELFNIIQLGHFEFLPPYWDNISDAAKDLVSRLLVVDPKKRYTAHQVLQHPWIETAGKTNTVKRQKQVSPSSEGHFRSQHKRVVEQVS
Sequence of Microtubule-associated serine/threonine-protein kinase 1 (Homo sapiens) (Q9Y2H9 whole entry, looked up): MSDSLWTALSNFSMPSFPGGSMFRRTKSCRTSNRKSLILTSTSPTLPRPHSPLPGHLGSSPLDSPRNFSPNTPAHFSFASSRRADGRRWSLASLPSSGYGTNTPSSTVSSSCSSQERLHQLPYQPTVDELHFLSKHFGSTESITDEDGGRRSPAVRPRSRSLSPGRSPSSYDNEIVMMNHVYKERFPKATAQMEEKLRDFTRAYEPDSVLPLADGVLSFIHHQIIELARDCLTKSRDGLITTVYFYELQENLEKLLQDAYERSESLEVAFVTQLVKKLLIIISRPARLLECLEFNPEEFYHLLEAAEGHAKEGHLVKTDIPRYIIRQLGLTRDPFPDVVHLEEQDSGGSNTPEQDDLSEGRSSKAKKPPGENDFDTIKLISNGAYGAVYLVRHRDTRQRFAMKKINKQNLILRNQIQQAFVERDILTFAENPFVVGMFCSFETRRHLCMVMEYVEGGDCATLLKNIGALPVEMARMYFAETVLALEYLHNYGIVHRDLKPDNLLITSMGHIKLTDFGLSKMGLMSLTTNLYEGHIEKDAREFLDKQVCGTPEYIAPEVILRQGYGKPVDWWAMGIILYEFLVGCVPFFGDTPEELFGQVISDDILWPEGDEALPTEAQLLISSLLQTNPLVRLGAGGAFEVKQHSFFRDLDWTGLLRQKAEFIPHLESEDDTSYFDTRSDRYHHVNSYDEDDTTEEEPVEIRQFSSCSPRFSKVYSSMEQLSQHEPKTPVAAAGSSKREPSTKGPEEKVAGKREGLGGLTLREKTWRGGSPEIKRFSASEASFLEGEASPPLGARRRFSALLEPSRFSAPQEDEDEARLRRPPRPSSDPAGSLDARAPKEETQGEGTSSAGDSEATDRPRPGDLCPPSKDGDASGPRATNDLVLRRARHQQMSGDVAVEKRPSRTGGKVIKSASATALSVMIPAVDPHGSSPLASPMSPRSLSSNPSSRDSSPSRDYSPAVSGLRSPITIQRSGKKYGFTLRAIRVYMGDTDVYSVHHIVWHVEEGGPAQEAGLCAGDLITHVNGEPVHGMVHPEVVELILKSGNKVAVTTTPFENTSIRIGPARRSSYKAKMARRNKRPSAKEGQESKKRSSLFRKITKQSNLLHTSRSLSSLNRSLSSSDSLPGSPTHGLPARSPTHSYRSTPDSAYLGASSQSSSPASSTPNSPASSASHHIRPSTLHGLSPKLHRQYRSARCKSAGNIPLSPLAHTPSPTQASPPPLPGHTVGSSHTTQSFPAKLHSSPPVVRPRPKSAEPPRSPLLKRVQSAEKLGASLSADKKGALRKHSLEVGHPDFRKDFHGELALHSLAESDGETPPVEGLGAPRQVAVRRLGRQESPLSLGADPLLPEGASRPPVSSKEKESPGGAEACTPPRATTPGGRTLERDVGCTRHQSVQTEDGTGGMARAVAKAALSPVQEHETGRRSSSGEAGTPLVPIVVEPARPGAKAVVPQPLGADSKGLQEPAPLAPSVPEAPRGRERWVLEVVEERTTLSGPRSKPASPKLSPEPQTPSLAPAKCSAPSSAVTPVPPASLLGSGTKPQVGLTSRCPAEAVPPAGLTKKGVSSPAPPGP
Sequence of 3-phosphoinositide-dependent protein kinase 1 (Homo sapiens) (O15530 whole entry): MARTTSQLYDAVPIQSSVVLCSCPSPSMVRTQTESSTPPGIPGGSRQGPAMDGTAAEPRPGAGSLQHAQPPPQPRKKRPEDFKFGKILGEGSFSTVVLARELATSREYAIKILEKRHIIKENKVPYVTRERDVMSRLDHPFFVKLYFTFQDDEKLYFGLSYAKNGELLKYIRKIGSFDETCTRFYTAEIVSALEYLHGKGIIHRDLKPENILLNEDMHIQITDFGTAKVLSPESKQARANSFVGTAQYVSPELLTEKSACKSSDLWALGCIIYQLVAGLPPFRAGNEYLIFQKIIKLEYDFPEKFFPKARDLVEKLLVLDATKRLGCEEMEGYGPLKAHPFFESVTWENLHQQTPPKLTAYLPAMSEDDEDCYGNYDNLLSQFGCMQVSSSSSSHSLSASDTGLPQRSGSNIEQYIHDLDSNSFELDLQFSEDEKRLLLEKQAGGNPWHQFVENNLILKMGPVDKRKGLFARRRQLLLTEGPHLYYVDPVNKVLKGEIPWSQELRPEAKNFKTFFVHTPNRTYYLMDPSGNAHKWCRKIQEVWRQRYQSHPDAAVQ
Sequence of Phosphatidylinositol 4-kinase beta (Homo sapiens) (Q9UBF8 2-816 limits assumed): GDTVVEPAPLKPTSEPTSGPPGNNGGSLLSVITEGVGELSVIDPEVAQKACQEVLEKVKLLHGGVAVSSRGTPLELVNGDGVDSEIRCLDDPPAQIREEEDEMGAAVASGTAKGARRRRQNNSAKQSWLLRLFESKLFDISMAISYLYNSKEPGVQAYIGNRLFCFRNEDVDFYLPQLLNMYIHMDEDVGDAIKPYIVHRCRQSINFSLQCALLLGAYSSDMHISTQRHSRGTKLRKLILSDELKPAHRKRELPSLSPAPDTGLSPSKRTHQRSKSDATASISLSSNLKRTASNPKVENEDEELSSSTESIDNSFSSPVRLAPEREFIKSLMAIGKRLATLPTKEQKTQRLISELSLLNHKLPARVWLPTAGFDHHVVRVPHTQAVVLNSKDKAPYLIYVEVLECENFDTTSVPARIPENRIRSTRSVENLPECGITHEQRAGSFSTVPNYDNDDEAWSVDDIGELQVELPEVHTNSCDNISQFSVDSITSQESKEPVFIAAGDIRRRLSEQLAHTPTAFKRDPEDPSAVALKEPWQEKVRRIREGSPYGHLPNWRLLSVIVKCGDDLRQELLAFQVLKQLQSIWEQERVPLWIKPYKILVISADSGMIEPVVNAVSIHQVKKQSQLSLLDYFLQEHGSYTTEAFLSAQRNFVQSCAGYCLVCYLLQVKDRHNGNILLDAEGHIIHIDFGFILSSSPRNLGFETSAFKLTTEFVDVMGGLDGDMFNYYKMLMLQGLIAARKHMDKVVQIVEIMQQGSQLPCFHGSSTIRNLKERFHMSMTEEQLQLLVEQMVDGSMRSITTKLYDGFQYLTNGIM

Compound	Activity [1] [%]	Activity [2] [%]	Activity [3] [%]	Activity [4] [%]	Activity [5] [%]	Activity [6] [%]	Activity [7] [%]	Activity [8] [%]	Activity [9] [%]	Activity [10] [%]	Activity [11] [%]
Nc1ccccc1Nc1ccc2c(c1)CCc1ccccc1C2=O	79	91	92	96	79	90	91	88	97	85	97
O=C1c2ccc(Nc3ccc(F)cc3F)cc2CCc2ccc(OC[C@H](O)CO)cc21 [Skepinone-L]	90	99	98	91	85	100	95	100	93	100	98
